# Read-outs that look alike come from different tables or passages of the source.
# Experiments:
# [1] = tested on: ovariectomized female rats; assay: Lordosis behavior test (lordosis quotient) in ovariectomized female rats; assay type: in vivo, rat
# Description: Thus, lordosis was selected as an indicator of restoration of female sexual function in ovariectomized female rats and an appropriate indicator for alleviating symptoms of female sexual dysfunction.
# Adult female Sprague Dawley rats (220-250 g) from Charles River Hungary Ltd., Godollo, Hungary, were used. Animals were kept in community cages (4 animals/cage) in a climate-controlled room (23±2° C., 50-60% humidity), with a 14 hour light, 10 hour dark cycle of artificial lighting, using reversed light/dark cycle. Food and water were available ad libitum.
# After a minimum five-day acclimatization period, animals were ovariectomized under ether anesthesia, then were left to recover for 3 weeks before testing (reconvalescence). All animals were treated in accordance with the guidelines of the European Communities Council Directive (86/609/EEC) and studies were permitted by the Institutional Animal Care Commission.
# Estradiol benzoate and progesterone were obtained from Sigma Chemical Co. Inc., Budapest, Hungary. […] E2-CDS as a 3% complex with HPβCD (E2-CDS-CD) was dissolved in distilled water and diluted with 27% HPβCD solution. E2-CDS-CD was synthesized by Alchem Laboratories Corporation, Alachua, Fla., US.
# After recovery from surgery, ovariectomized female rats were divided into four groups and treated once a day for five days intravenously, via a bolus injection through the tail vein, as follows: (1) control, 27% HPβCD solution; (2) 0.003 mg/kg E2-CDS dissolved in 27% HPβCD solution; (3) 0.01 mg/kg E2-CDS dissolved in 27% HPβCD solution; and (4) 0.03 mg/kg E2-CDS dissolved in 27% HPβCD solution. A minimal number of ovariectomized (8 to 12) females were used per group. Intravenous treatments either with E2-CDS or HPβCD (controls) were carried out daily for 5 days beginning 2 days prior to the first day of behavior observations, in a volume of 0.05 ml/100 g body weight.
# The behavior test was conducted in a plexiglass observation cage during the dark cycle. During behavioral observations, only a dim red light was on.
# An experienced and active male rat was placed in the arena 5 minutes prior to the female. […] The lordosis quotient (LQ) expresses the estrogen effect on sexual receptivity and was calculated as follows: LQ=100×number of lordoses/10 mounts The observation of the sexual behavior of each female was carried out, in the case of E2-CDS, every day for 22 days; in the case of EB, investigations were carried out every day for 10 days. […] Citrated blood samples were taken by retro-orbital sinus puncture under light ether anesthesia. The samples were stored at 4° C. for one hour, then centrifuged at 1000 g for 10 minutes. Plasma was separated and stored at −80° C. until assayed. Plasma LH concentrations from individual samples were measured by double antibody radioimmunoassay kits obtained from Amersham Pharmacia Biotech, Rome, Italy. […] The limit of detection was 15 pg/ml.
# Behavioral changes were analyzed using the Mann-Whitney U test (Siegel, Nonparametric Statistics for the Behavioral Sciences, New York; McGraw-Hill Book Company, Inc., 1956). The Fisher exact test was used for percentage comparisons (Zar, Biostatistical Analysis, Prentice Hall, Inc., Englewood Cliffs, N.J., 1974). Serum LH data were analyzed for each time and treatment group by analysis of variance (ANOVA) followed by Bonferroni posthoc test.
# [2] = tested on: testosterone; assay: Phase I repeated buccal dosing in postmenopausal women: serum testosterone; assay type: in vivo, human; details: for testosterone level exceeding baseline: 72 hours after last dose
# Description: Even more recently, in a Phase I clinical study of postmenopausal women, two different administration regimens of a 2.86 mg E2-CDS buccal delivery tablet were evaluated for safety and effects on hormone levels. The subjects were 12 healthy postmenopausal volunteers, divided into two groups of six. In Group A, women were dosed once daily for 10 days (10 doses); in Group B, women were dosed once every other day for 13 days (7 doses).
# [3] = female, human, in vivo, 2.5 mg
# Description: A brief evaluation of the results follows:
# One explanation for this difference might be the difference in the dissolution (and buccal residence) time of the two formulations used in these two different studies.
# [4] = tested on: LH; details: cited from earlier work
# [5] = tested on: morphine-dependent rats; details: cited from earlier work
# [6] = tested on: LH; details: cited from earlier work; remark: listed apart in the source
# [7] = tested on: castrated male rats; details: cited from earlier work
# [8] = tested on: testosterone; details: 1 mg/kg i.v., cited from earlier work
# [9] = 0.01 mg/kg i.v. once a day for 5 days
# [10] = 0.03 mg/kg i.v. once a day for 5 days
smiles,measurement,setting,value
"CN1C=CCC(C(=O)O[C@H]2CC[C@H]3[C@@H]4CCc5cc(O)ccc5[C@H]4CC[C@]23C)=C1 [E2-CDS, 17β-[(1-methyl-1,4-dihydro-3-pyridinyl)carbonyloxy]estra-1,3,5(10)-trien-3-ol]","lordosis quotient, effect",[1]; 0.003 mg/kg i.v. once a day for 5 days,"slightly enhanced the lordosis quotient, but these effects were not statistically significant"
same,duration of LQ increase (after day 11 not statistically significant),[1]; [9],lasted till day 15
same,"lordosis quotient LQ, effect",[1]; [9],significantly enhanced the LQ from day 5 to day 11
same,duration of LQ enhancement,[1]; [10],from day 3 to day 18
same,"lordosis quotient LQ, effect",[1]; [10],significantly enhanced
same,testosterone level exceeding baseline,[2]; Group A,14%
same,testosterone level exceeding baseline,[2]; Group B,28%
same,time to reach minimum testosterone level,"[2]; day 1, Group A",6.5 ± 11.7 h
same,mean testosterone AUC24 lower than baseline AUC24,"[2]; day 1, Group B",23.0%
same,time to reach minimum testosterone level,"[2]; day 1, Group B",7.3 ± 11.3 h
same,Tmax of E2,[3],2 h
same,average Cmax of E2,[3],0.1534 ng/mL
same,duration of LH suppression,"[4]; 0.1 mg/kg i.v. in 20% (w/v) HPβCD, castrated female rats (Brewster 1988)",18 days
same,LH inhibition,"[4]; 0.5 mg/kg single i.v., day 12 (Estes 1987, Experiment 3)",heterogeneous results
same,LH compared to equimolar estradiol 17-valerate,"[4]; 0.5 mg/kg single i.v., day 12 or 18 (Estes 1987, Experiment 4)",significantly decreased by E2-CDS compared to estradiol valerate
same,plasma LH,[4]; 1.0 mg/kg i.v. single and multiple weekly doses (Rahimy 1991),significantly suppressed for single and multiple doses
same,serum LH decrease compared to vehicle,"[4]; 2 mg/kg single i.v., day 12 (Estes 1987, Experiment 3)",75%
same,serum LH decrease compared to vehicle,"[4]; 5 mg/kg single i.v., day 12 (Estes 1987, Experiment 3)",91%
same,reduction in serum LH,"[4]; multiple i.v. injections (7, every two days) 10 to 333 μg/kg (Anderson 1988)",32-76%
same,reduction in serum LH,[4]; single i.v. dose 10 μg/kg (Anderson 1988),no effect
same,reduction in serum LH,"[4]; single i.v. dose 33 to 333 μg/kg, 2 days before sacrifice (Anderson 1988)",39-52%
same,naloxone-induced rise in TST,"[5]; 1 mg/kg i.v. once weekly for three weeks, tested one week after last injection",significantly attenuated
same,attenuation of naloxone-induced rise in TST,"[5]; single 1 mg/kg i.v., tested one week after injection",25%
same,effects on plasma LH,[6]; 1280 μg single i.v. dose group,substantial and sustained decreases
same,effects on plasma LH,[6]; 10-40 μg single i.v. dose group,Minimal effects
same,effects on plasma LH,[6]; 80-640 μg single i.v. dose group,threshold effects
same,time through which LH was lowered in a clinically meaningful way,"[6]; single 1280 μg i.v. dose, one post-menopausal volunteer",96 h
same,masculine sexual behavior,[7]; 3 mg/kg i.v. (Anderson '911 patent),"stimulated mounting behavior, increased intromission behavior and reduced both mount latency and intromission latency"
same,ejaculatory behavior,[7]; 3 mg/kg single tail vein injection in DMSO (Anderson 1987),ejaculatory behavior was not restored
same,duration of improved masculine sexual behavior,[7]; single i.v. dose of 3 mg/kg (Anderson '911 patent),28 days
same,decrease of serum testosterone levels,[8]; one day after treatment,99%
same,suppression of serum testosterone,[8]; through 14 days post-treatment,more than 96%

# Reference: patent publication US20050059645A1, “Methods for the treatment of male and female sexual dysfunction” (priority 2003, published 2005)
